Data: ChEMBL document CHEMBL4354815, “Fibrinolysis Inhibitors: Potential Drugs for the Treatment and Prevention of Bleeding” (J Med Chem, 2020)
Each block holds one molecule with its values, some of them ahead of it.

What was measured:
[1] = molecular target: T1, Plasminogen (Homo sapiens, UniProt P00747); assay: Inhibition of human plasmin preincubated for 15 mins followed by MeOSuc-Ala-Phe-Lys-AMC substrate addition and measured after 30 mins by fluorescence method
[2] = molecular target: Plasma kallikrein (Homo sapiens, UniProt P03952); assay: Inhibition of human plasma kallikrein preincubated for 15 mins followed by H-Pro-Phe-Arg-AMC substrate addition and measured after 30 mins by fluorescence method
[3] = molecular target: Coagulation factor XI (Homo sapiens, UniProt P03951); assay: Inhibition of human factor 11a preincubated for 15 mins followed by Boc-Glu (OBzl) -Ala-Arg-AMC and measured after 30 mins by fluorescence method
[4] = tested on: Plasma; assay: Anti-fibrinolytic activity in 5% human plasma in presence of fibrinogen by spectrophotometric method; type: functional, cell-free
[5] = molecular target: T1, Plasminogen; assay: Inhibition of microplasmin (unknown origin) expressed in Pichia pastoris preincubated for 10 mins followed by S2251 substrate addition
[6] = molecular target: Urokinase-type plasminogen activator (Homo sapiens, UniProt P00749); assay: Inhibition of urokinase-type plasminogen activator (unknown origin)
[7] = molecular target: T1, Plasminogen; assay: Inhibition of plasmin (unknown origin)
[8] = Half life in human; type: ADME
[9] = Drug level in human serum at 100 mg/kg, iv measured after 3 to 4 hrs; type: ADME, organism-based; details: in vivo
[10] = Initial serum concentration in human at 100 mg/kg, iv; type: ADME, organism-based
[11] = Plasma concentration in human at 100 mg/kg, po measured within 2 to 3 hrs; type: ADME, organism-based; details: in vivo
[12] = molecular target: T1, Plasminogen; assay: Inhibition of plasmin (unknown origin) assessed as reduction in amidolytic activity using S-2251 as the substrate after 4 mins
[13] = compound: NCCCC[C@H](NC(=O)[C@H](Cc1ccccc1)NC(=O)[C@@H]1CCC(=O)N1)C(=O)Nc1ccc([N+](=O)[O-])cc1; assay: (§1) Inhibition of human plasmin assessed as km by Lineweaver-burk method
[14] = compound: CC[C@@H](C)[C@@H](N)C(=O)N[C@@H](Cc1ccccc1)C(=O)N[C@@H](CCCCN)C(=O)Nc1ccc([N+](=O)[O-])cc1; assay: as §1

Sequence of Coagulation factor XI (P03951 19-387 limits assumed): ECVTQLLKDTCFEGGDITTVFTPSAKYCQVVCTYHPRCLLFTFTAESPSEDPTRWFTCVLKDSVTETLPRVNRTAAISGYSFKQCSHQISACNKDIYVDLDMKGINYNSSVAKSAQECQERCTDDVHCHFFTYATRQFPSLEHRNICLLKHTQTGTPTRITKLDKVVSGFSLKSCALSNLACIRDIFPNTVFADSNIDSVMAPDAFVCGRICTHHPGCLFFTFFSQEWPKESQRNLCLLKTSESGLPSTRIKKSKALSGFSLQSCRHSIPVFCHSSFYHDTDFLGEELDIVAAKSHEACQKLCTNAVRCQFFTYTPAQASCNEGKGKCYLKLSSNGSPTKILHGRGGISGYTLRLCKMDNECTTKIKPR
Sequence of Coagulation factor XI (P03951 388-625 limits assumed): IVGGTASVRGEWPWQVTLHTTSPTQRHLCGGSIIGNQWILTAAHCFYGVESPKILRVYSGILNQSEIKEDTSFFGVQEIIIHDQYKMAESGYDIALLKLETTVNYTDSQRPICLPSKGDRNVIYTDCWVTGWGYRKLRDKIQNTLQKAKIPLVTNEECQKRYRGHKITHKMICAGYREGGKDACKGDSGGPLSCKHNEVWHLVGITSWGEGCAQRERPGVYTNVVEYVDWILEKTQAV
Sequence of Plasma kallikrein (P03952 20-390 limits assumed): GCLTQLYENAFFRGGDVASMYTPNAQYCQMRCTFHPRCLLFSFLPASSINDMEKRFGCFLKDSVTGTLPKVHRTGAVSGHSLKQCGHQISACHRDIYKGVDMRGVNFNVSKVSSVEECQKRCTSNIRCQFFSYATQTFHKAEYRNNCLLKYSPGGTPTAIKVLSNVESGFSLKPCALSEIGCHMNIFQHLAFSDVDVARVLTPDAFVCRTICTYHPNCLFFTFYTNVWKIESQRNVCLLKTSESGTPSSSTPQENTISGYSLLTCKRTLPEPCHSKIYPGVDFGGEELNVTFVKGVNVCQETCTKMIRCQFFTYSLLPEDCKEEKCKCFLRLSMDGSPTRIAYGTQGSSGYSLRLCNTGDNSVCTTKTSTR
Sequence of Plasma kallikrein (P03952 391-638 limits assumed): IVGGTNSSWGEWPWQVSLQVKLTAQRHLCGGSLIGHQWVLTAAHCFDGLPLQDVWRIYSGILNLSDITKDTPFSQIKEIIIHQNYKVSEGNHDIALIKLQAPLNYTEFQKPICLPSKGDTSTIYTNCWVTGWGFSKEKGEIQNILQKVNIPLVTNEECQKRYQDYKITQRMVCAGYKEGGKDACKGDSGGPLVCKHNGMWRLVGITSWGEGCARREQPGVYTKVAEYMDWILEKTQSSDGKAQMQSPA

IC50 [1]: 0.42 nM | IC50 [2]: 1.7 nM | IC50 [3]: < 0.13 nM
Molecule: Cc1nc2nc(C(C)C)[nH]c2cc1-c1ccc(C[C@H](NC(=O)[C@H]2CC[C@H](CN)CC2)C(=O)Nc2ccc(-c3nnc(C(F)(F)C(F)(F)C(=O)O)[nH]3)cc2)cc1

IC50 [4]: 9.1 nM
Molecule: CC(C)(C)NC(=O)Nc1cccc2nn3c(C4CCNCC4)cc(=O)[nH]c3c12

IC50 [1]: 0.87 nM | IC50 [2]: 7.2 nM | IC50 [3]: 0.34 nM
Molecule: Cc1cc2nc(C(C)C)[nH]c2cc1-c1ccc(C[C@H](NC(=O)[C@H]2CC[C@H](CN)CC2)C(=O)Nc2ccc(-c3nnc(C(F)(F)C(F)(F)C(=O)O)[nH]3)cc2)cc1

IC50 [4]: 10 nM
Molecule: CCc1ccc(C(=O)Nc2cccc3nn4c(C5CCNCC5)cc(=O)[nH]c4c23)cc1

IC50 [1]: 0.4 nM | IC50 [3]: 0.7 nM
Molecule: Cc1nc2[nH]c(C3CC3)nc2cc1-c1ccc(C[C@H](NC(=O)[C@H]2CC[C@H](CN)CC2)C(=O)Nc2cc(Cl)c3[nH]c(=O)[nH]c3c2)cc1

IC50 [4]: 85 nM
Molecule: O=C(NCc1ccco1)Nc1cccc2nn3c(C4CCNCC4)cc(=O)[nH]c3c12

IC50 [5]: 380 nM
Molecule: CCCCCCCCNC(=O)[C@H](Cc1ccc(OCc2ccc3ccccc3n2)cc1)NC(=O)[C@H]1CC[C@H](CN)CC1

IC50 [1]: 1 nM | IC50 [2]: 8.5 nM | IC50 [3]: 21.5 nM
Molecule: CNC(=O)c1ccc(NC(=O)[C@H](Cc2ccc(-c3cc4[nH]cc(C(=O)O)c(=O)c4cc3C)cc2)NC(=O)[C@H]2CC[C@H](CN)CC2)cc1Cl

Ki [6]: 28 nM | Ki [7]: 36 nM
Molecule: N=C(N)c1ccc(CNC(=O)[C@H](CCc2ccccc2)NC(=O)[C@@H](CO)NS(=O)(=O)Cc2ccccc2)cc1

IC50 [4]: 11 nM
Molecule: Cc1cc(Cl)c2c(c1)nn1c(C3CCNCC3)cc(=O)[nH]c21

half-life [8]: 1.33 h | Drug uptake [9]: 0.035 mg/mL | C0 [10]: 1500 µg/mL | Cp [11]: 300 µg/mL
Molecule: NCCCCCC(=O)O [AMINOCAPROIC ACID]

IC50 [12]: 660000 nM
Molecule: NCCCC[C@H](NC(=O)[C@H]1CC[C@H](CN)CC1)C(=O)NCOc1ccc(C(=O)c2ccccc2)cc1

B1: Plasminogen (Homo sapiens), P00747 (protein)
chain: MEHKEVVLLLLLFLKSGQGEPLDDYVNTQGASLFSVTKKQLGAGSIEECAAKCEEDEEFTCRAFQYHSKEQQCVIMAENRKSSIIIRMRDVVLFEKKVYLSECKTGNGKNYRGTMSKTKNGITCQKWSSTSPHRPRFSPATHPSEGLEENYCRNPDNDPQGPWCYTTDPEKRYDYCDILECEEECMHCSGENYDGKISKTMSGLECQAWDSQSPHAHGYIPSKFPNKNLKKNYCRNPDRELRPWCFTTDPNKRWELCDIPRCTTPPPSSGPTYQCLKGTGENYRGNVAVTVSGHTCQHWSAQTPHTHNRTPENFPCKNLDENYCRNPDGKRAPWCHTTNSQVRWEYCKIPSCDSSPVSTEQLAPTAPPELTPVVQDCYHGDGQSYRGTSSTTTTGKKCQSWSSMTPHRHQKTPENYPNAGLTMNYCRNPDADKGPWCFTTDPSVRWEYCNLKKCSGTEASVVAPPPVVLLPDVETPSEEDCMFGNGKGYRGKRATTVTGTPCQDWAAQEPHRHSIFTPETNPRAGLEKNYCRNPDGDVGGPWCYTTNPRKLYDYCDVPQCAAPSFDCGKPQVEPKKCPGRVVGGCVAHPHSWPWQVSLRTRFGMHFCGGTLISPEWVLTAAHCLEKSPRPSSYKVILGAHQEVNLEPHVQEIEVSRLFLEPTRKDIALLKLSSPAVITDKVIPACLPSPNYVVADRTECFITGWGETQGTFGAGLLKEAQLPVIENKVCNRYEFLNGRVQSTELCAGHLAGGTDSCQGDSGGPLVCFEKDKYILQGVTSWGLGCARPNKPGVYVRVSRFVTWIEGVMRNN
Km [13]: 300 µM | Km [14]: 20 µM
